For one data set, the target named is T1, porcine pepsin (Sus scrofa, UniProt P00791).
T1 construct: purchased Sigma-Aldrich (Madrid, Spain)
Description: In vitro simulated gastric digestion (G60). It is filed as in vitro ADME. The following applies: 60 min. As to the method:
For the in vitro simulated peptide GI digestion, a two-stage hydrolysis process was carried out according to Martos et al.. […] was dissolved in simulated gastric fluid (35 mM NaCl at pH 2 for 15 min) and posteriorly subjected to digestion by porcine pepsin (E.C. 3.4.23.1, 3440 units/mg) at an enzyme/substrate ratio of 1: 20 w/w at 37 °C for 60 min. Gastric digestion with pepsin was stopped by adding 1 M NaHCO3 and pH was adjusted to 7.0 with NaOH 1 M (final protein concentration of 5 mg/mL). Aliquots of this gastric digest were collected (G60) and stored at −20 °C until analysis. Duodenal digestions were performed by using, as the starting material, the obtained gastric digests, with the addition of 1 M CaCl2, 0.25 M bis-Tris pH 6.5, 0.25 M bis-Tris pH 6.5, and a 0.125 M bile salts mixture containing equimolar quantities of sodium taurocholate and glycodeoxycholic acid. Posteriorly, the duodenal enzymes trypsin (EC 232-650-8, 10100 BAEE units/mg protein), α-chymotrypsin (EC 232-671-2; 55 units/mg protein), porcine pancreatic lipase (EC 232-619-9) and colipase (EC 259-490-1), prepared in 35 mM NaCl adjusted to pH 7, were added to the solution. Duodenal digestion was carried out at pH 7, 37 °C during 60 (D60). Then, enzymes were inactivated by heating at 95 °C for 10 min in a water bath, followed by cooling to room temperature. Triplicates of aliquots at each time point were collected and stored at −20 °C until analysis.
Samples obtained from in vitro peptide simulated digestion and Caco-2 monolayers were diluted 10 times with water (0.1% FA) and centrifuged (15,000 rpm, 15 min, 4 °C). Supernatants were directly analyzed by UHPLC-HRMS to avoid the loss of polar peptide fragments. Extensive clean-up or pre-concentration procedures were not necessary due to the high concentration of peptide and low matrix complexity than plasma samples.
The obtained purified solutions from plasma and peptide digests G60 and D60 and from AP and BL chambers in Caco-2 experiment were analyzed using a UHPLC 1290 Infinity II Series coupled to a QqQ 6490 Series (Agilent Technologies, Santa Clara, CA, USA) for tandem mass experiments or a qTOF 6550 Series (Agilent Technologies) for high-resolution mass spectrometry experiments. Chromatographic separation of peptide or their fragments were performed using a Kinetex 2.6 µm EVO C18 column (150 × 2.1 mm, […]) from (Phenomenex, Torrance, USA) as stationary phase and water containing 0.1% formic acid (solvent A) and acetonitrile (solvent B) as mobile phase. The separation was performed in gradient elution as follows: isocratic; 0–0.5 min, 2 % B; 0.5–1 min, 2–6% B; 1–5 min, 6–15% B; 5–6 min, 15–35% B; 6–10 min, 35–98% B; 10–12 min, 98% B isocratic; 12–12.10, 98–2% B. For all runs, 10 μL of the sample (4 °C) was injected, and the flow rate was 0.350 mL/min and the column temperature was 25 °C.
For in vitro simulated digestion experiments and Caco-2 monolayer samples, qTOF instrument was used to investigate the presence of unknown peptide fragments and previously in silico predicted peptide fragments by means of its accurate mass. Peptide and its fragments were semi-quantified using the chromatographic peak area observed in the extracted ion chromatograms using a 20 ppm mass window.

The subject of data set [1] is trypsin, α-chymotrypsin, porcine pancreatic lipase and colipase. Description: In vitro simulated duodenal digestion (D60). It is filed as in vitro ADME. Conditions: 60 min simulated duodenal digestion, pH 7, 37 °C. How it is done:
For the in vitro simulated peptide GI digestion, a two-stage hydrolysis process was carried out according to Martos et al.. […] was dissolved in simulated gastric fluid (35 mM NaCl at pH 2 for 15 min) and posteriorly subjected to digestion by porcine pepsin (E.C. 3.4.23.1, 3440 units/mg) at an enzyme/substrate ratio of 1: 20 w/w at 37 °C for 60 min. Gastric digestion with pepsin was stopped by adding 1 M NaHCO3 and pH was adjusted to 7.0 with NaOH 1 M (final protein concentration of 5 mg/mL). Aliquots of this gastric digest were collected (G60) and stored at −20 °C until analysis. Duodenal digestions were performed by using, as the starting material, the obtained gastric digests, with the addition of 1 M CaCl2, 0.25 M bis-Tris pH 6.5, 0.25 M bis-Tris pH 6.5, and a 0.125 M bile salts mixture containing equimolar quantities of sodium taurocholate and glycodeoxycholic acid. […]
Samples obtained from in vitro peptide simulated digestion and Caco-2 monolayers were diluted 10 times with water (0.1% FA) and centrifuged (15,000 rpm, 15 min, 4 °C). Supernatants were directly analyzed by UHPLC-HRMS to avoid the loss of polar peptide fragments. […]

Data set [2] is described as follows: Peptide presence in plasma after oral administration. Conditions: Wistar rats, 10 mg/kg bw oral, plasma at 0, 30 and 60 min, pooled n = 6, SPE extraction, UHPLC-MS/MS (limit of detection 0.05 ppb) and UHPLC-HRMS. Format: in vivo. How it is done:
Male Wistar rats (17–20 weeks-old, weighing between 230 and 250 g) were obtained from Charles River Laboratories (Barcelona, Spain). Animals were maintained in pairs, at 22 °C with light/dark cycles of 12 h and were fed standard chow diet (AO4, Panlab, Barcelona, Spain) ad libitum during all the experiment. Animals were randomly divided and administered tap water (control group, n = 6) or 10 mg/kg body weight (bw) peptide ([…] group, n = 6) by gastric intubation after starvation of 12 h. The total volume of water or […] orally administered to the rats was 1 mL. […]
Solid-phase extraction (SPE): Plasma samples (150 µL) were mixed with 25 µL of IFV*[…] […] Eluted samples were dried in a speed-vac concentrator (Thermo Fisher, Waltham, Massachusetts), USA), reconstituted in 100 µL of water (0.1 % FA and 0.1 % BSA), and analyzed by UHPLC-MS/MS. […]
The obtained purified solutions from plasma and peptide digests G60 and D60 and from AP and BL chambers in Caco-2 experiment were analyzed using a UHPLC 1290 Infinity II Series coupled to a QqQ 6490 Series (Agilent Technologies, Santa Clara, CA, USA) for tandem mass experiments or a qTOF 6550 Series (Agilent Technologies) for high-resolution mass spectrometry experiments. […]

Ends that are not written are not given here.

T1 sequence (P00791 60-385): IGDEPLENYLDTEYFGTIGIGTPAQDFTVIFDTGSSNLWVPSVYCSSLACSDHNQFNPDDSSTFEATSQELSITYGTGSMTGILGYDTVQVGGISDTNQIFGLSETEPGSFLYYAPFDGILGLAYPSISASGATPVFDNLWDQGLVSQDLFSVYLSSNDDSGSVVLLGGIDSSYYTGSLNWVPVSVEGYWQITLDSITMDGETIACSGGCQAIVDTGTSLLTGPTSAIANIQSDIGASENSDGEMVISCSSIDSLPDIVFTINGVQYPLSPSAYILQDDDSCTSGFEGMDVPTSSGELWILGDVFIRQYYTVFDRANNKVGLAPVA

For AVFQHNCQE, the “Resistance to gastric digestion” value on porcine pepsin (pepsin, pH 2, 37 °C, most intense signal in G60 was the native peptide) was “resistant to gastric digestion”. Moreover, on porcine pepsin (simulated gastric fluid 35 mM NaCl pH 2, porcine pepsin enzyme/substrate 1:20 w/w, 37 °C, UHPLC-HRMS extracted ion chromatogram, 20 ppm window, semi-quantified, triplicate aliquots), the “Area G60 (chromatographic peak area)” value is reported as 5,236,186. In data set [1], the “Fate after duodenal digestion” value is given as “mainly hydrolyzed into free amino acid residues”. Further, the “Presence of peptide or fragments in plasma” value in data set [2] is listed as “neither the peptide nor their potential fragments were identified in the plasma samples”.
